Values joined by “and” are separate entries in the source; they are usually repeats but may differ in a detail not shown here. Equal values may be shown once.
What was measured:
Assay in all cases: Greenhouse postemergence herbicidal effect (visual injury, 20-22 d)
Assay type in all cases: in vivo
[1] = tested on: ECHCG, Echinochloa crus-galli (barnyard grass); conditions: Compound A 10 g/ha, without cloquintocet-mexyl safener
[2] = tested on: IPOHE, Ipomoea hederacea (ivyleaf morningglory)
[3] = tested on: STEME, Stellaria media (chickweed); conditions: STEME, Compound A 10 g/ha
How it was run: (§1)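 Seedlings reach 2nd/3rd true leaf in greenhouse; two- or three-way mixes (pyridine carboxylate with cloquintocet-mexyl, PS-II inhibitor, optional HPPD inhibitor) in 1.25% v/v oil adjuvant are sprayed overhead at 187 L/ha. Plants are sub-irrigated, then injury versus blank controls is rated 0–100% at 20-22 d.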

[4] = tested on: DIGSA, Digitaria sanguinalis (large crabgrass); conditions: Compound A 10 g/ha, without cloquintocet-mexyl safener
[5] = tested on: GLXMA, Glycine max (soybean); conditions: for % visual injury, Obs: GLXMA, Compound A 10 g/ha
[6] = tested on: CYPES, Cyperus esculentus (nutsedge); conditions: Compound A 10 g/ha
[7] = tested on: ALOMY, Alopecurus myosuroides (blackgrass)
[8] = tested on: SINAR, Sinapis arvensis (wild mustard)
How it was run: as §1

[9] = tested on: MATCH, Matricaria chamomilla (wild chamomile)
How it was run: as §1

[10] = tested on: SASKR, Salsola kali (Russian thistle)
How it was run: as §1

[11] = without cloquintocet-mexyl safener

Q: What does the source list for N#CCOC(=O)c1nc(-c2ccc3cc[nH]c3c2F)c(F)c(N)c1Cl [Compound A, cyanomethyl 4-amino-3-chloro-5-fluoro-6-(7-fluoro-1H-indol-6-yl)pyridine-2-carboxylate]?
A: % visual injury, Obs [1]: 58%; visual injury ([2]; 7.5 g ae/ha alone): 20%; visual injury ([2]; 10 g ae/ha alone): 25%; % visual injury, Obs ([2]; IPOHE, Compound A 10 g/ha, without cloquintocet-mexyl safener): 15%; % visual injury, Obs [3]: 90%; % visual injury, Obs [3, 11]: 88%; % visual injury, Obs [4]: 8%; visual injury ([5]; 7.5 g ae/ha alone): 80%; visual injury ([5]; 10 g ae/ha alone): 90%; % visual injury, Obs [5]: 90%; % visual injury, Obs [5, 11]: 85%; % visual injury, Obs [6]: 8%; % visual injury, Obs [6, 11]: 0%; visual injury ([7]; 7.5 g ae/ha alone): 0%; visual injury ([7]; 10 g ae/ha alone): 0%; % visual injury, Obs ([7]; ALOMY, Compound A 10 g/ha, without cloquintocet-mexyl safener): 0%; visual injury ([8]; 7.5 g ae/ha alone): 88% and 85% and 83%; visual injury ([8]; 10 g ae/ha alone): 90% and 92% and 88%; visual injury ([9]; 7.5 g ae/ha alone): 20% and 18% and 10%; visual injury ([9]; 10 g ae/ha alone): 30% and 20%; visual injury ([10]; 7.5 g ae/ha alone): 60% and 45%; visual injury ([10]; 10 g ae/ha alone): 63% and 60%

Source: US20220007644A1, “COMPOSITIONS COMPRISING PYRIDINE CARBOXYLATE HERBICIDES WITH PHOTOSYSTEM II AND OPTIONAL HPPD INHIBITOR HERBICIDES” (Corteva Agriscience LLC, priority 2018, published 2022)
